Our source for the Ki values is paper PMC3510438, “The transmembrane tyrosines Y56, Y91 and Y167 play important roles in determining the affinity and transport rate of the rabbit proton-coupled peptide transporter PepT1” (The International Journal of Biochemistry & Cell Biology, 2009).

One assay has as its target T1, Y345F-rPepT1 (Oryctolagus cuniculus, UniProt P36836, Y345F).
T1 construct: expressed in transfected cells; host or cells: Xenopus laevis oocytes injected with cRNA
T1 sequence (P36836 1-707 Y345F): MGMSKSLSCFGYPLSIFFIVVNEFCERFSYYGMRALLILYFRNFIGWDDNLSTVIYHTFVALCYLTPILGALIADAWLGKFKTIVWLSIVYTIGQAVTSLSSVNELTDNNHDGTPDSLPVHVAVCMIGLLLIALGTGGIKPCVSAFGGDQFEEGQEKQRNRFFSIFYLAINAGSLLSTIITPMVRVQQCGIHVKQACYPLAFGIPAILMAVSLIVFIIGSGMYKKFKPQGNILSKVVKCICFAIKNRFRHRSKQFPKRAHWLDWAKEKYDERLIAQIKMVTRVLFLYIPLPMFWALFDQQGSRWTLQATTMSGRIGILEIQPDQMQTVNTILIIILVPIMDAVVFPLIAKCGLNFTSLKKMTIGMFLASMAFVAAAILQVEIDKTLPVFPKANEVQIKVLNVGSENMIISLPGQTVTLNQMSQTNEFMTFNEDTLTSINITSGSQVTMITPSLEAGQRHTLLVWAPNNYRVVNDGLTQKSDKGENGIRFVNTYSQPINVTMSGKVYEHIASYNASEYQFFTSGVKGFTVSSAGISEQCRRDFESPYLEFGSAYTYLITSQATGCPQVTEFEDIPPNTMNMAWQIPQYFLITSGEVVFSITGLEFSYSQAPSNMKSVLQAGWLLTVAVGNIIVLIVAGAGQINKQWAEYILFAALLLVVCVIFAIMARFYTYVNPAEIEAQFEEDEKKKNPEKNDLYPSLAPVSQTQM
The assay can be described thus: Competition of [3H]-D-Phe-L-Gln uptake into Xenopus oocytes, Ki. The assay is classed as cell-based, rabbit. The following applies: against 0.4 μM [3H]-D-Phe-L-Gln uptake. The method, then:
(§1) rPepT1 constructs were linearised with XbaI (New England Biolabs, UK) and cRNA generated by in vitro transcription (T7 mMessage mMachine, Ambion, Cambridgeshire, UK). Xenopus laevis oocytes were obtained under MS222 anaesthesia (0.2%, w/v) in accordance with the UK Animals (Scientific Procedures) Act, 1986, and maintained at 18 °C in modified Barth's medium (88 mM NaCl, 1 mM KCl, 0.82 mM MgSO4, 2.4 mM NaHCO3, 0.42 mM CaCl2, 10 mM Hepes, 5 mM sodium pyruvate, 50 μg ml^−1 gentamicin (Fluka, Poole, UK), adjusted to pH 7.6 with 1 M NaOH). Transport measurements were performed at least 72 h after micro-injection of oocytes with 27nl cRNA (1 μg/μl), with medium changed daily.
(§2) Uptake of [^3H]-D-Phe-L-Gln (17.4 Ci/mmole, custom synthesised, Cambridge Research Biochemicals, Stockton-on-Tees, UK) was performed as previously described ([Meredith, 2004]). Briefly, 5 oocytes were incubated in 100 μl of uptake medium (95 mM NaCl, 2 mM KCl, 1 mM CaCl2, 0.42 mM MgCl2, 10 mM Tris/Hepes pH 7.4 or Tris/Mes pH 5.5) with tracer (0.4 μM) [^3H]-D-Phe-L-Gln. After incubation, the oocytes were washed sequentially five times in 1 ml of ice-cold 120 mM NaCl solution, lysed individually with 100 μl 2% (w/v) SDS and liquid scintillation counted. As a control non-injected oocytes were also incubated in uptake medium with D-Phe-L-Gln as above.
(§3) The affinity of wild-type and mutant rPepT1 transporters were assessed by competition studies with 0.4 μM [^3H]-D-Phe-L-Gln and Gly-L-Gln present in the uptake medium in concentrations from 0 to 2 mM using the protocol above, and the Ki calculated using the method of [Deves and Boyd (1989)].

A further assay addresses T2, Y12F-rPepT1 (Oryctolagus cuniculus, UniProt P36836, Y12F).
T2 construct: expressed in transfected cells; host or cells: Xenopus laevis oocytes injected with cRNA
T2 sequence (P36836 1-707 Y12F): T1 sequence (P36836 1-707 Y345F) with Y12F, F345Y
The assay is described as above. The assay is classed as cell-based, rabbit. Particulars: against 0.4 μM [3H]-D-Phe-L-Gln uptake. On the procedure:
as §1, §2, §3

Substitutions are numbered along the chain they refer to. Where a SMILES comes first, the peptide text is derived from it.

On to `NCC(=O)N[C@@H](CCC(N)=O)C(=O)O` [Gly-L-Gln] (H-Gly-Gln-OH), for which the Ki at Y345F-rPepT1 (pHout 5.5) came to 320 ± 70 µM; at Y345F-rPepT1 (pHout 7.4) it was 180 ± 50 µM; on Y12F-rPepT1 (pHout 5.5), 220 ± 20 µM; on Y12F-rPepT1 (pHout 7.4), 90 ± 20 µM.
